Experimental data taken from PubChem BioAssay (NCI).
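These data come from cells grown in 96-well plates and exposed to compound for 48 hours at five concentrations. TGI: total growth inhibition.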

How the values were obtained:
Test in all cases: inhibition of tumour cell growth, NCI panel, 48 h
TK-10 renal = system: TK-10 renal
OVCAR-5 ovarian = system: OVCAR-5 ovarian
A549 NSCLC = system: A549 NSCLC
MDA-N = system: MDA-N
MOLT-4 leukemia = system: MOLT-4 leukemia
HCC-2998 colon = system: HCC-2998 colon
SF-295 CNS = system: SF-295 CNS
RPMI-8226 leukemia = system: RPMI-8226 leukemia
MALME-3M melanoma = system: MALME-3M melanoma
PC-3 prostate = system: PC-3 prostate
NCI-H23 lung = system: NCI-H23 lung
MCF7 breast = system: MCF7 breast
HCT-15 colon = system: HCT-15 colon
LOX IMVI melanoma = system: LOX IMVI melanoma
SF-539 CNS = system: SF-539 CNS
786-0 renal = system: 786-0 renal
SNB-19 CNS = system: SNB-19 CNS
UACC-257 melanoma = system: UACC-257 melanoma
COLO 205 colon = system: COLO 205 colon

Measured: TGI

C#CCN(C(=O)C(F)(F)F)C(/C=C\C(=O)OC)(C(=O)OCC)C(=O)OCC
not listed: UACC-257 melanoma | COLO 205 colon
> 100 µM: all other assays above

COC(=O)/C(=N\N)C(C(=O)C(=O)Nc1cc(Cl)ccc1Cl)c1nc2ccc([N+](=O)[O-])cc2[nH]c1=O (centres undefined)
not listed: SNB-19 CNS | COLO 205 colon
> 100 µM: all other assays above

CCCN1C(=O)CN(S(=O)(=O)c2ccc(Cl)cc2)C1=O
not listed: MOLT-4 leukemia
> 100 µM: all other assays above

CN(CC(=O)Nc1ccccc1C(=O)O)c1ccccc1
not listed: COLO 205 colon
> 100 µM: all other assays above

CC(=O)Oc1ccc(-c2nnc(-c3ccc(OC(C)=O)cc3)nn2)cc1
not listed: HCC-2998 colon
> 100 µM: all other assays above

C(=NC12CC3CC(CC(C3)C1)C2)C1CCCCC1
not listed: LOX IMVI melanoma
> 100 µM: all other assays above

N#CCC(=O)N/N=C\C(O)C(O)C(O)C(O)CO (centres undefined)
not listed: COLO 205 colon
> 100 µM: all other assays above
